Each structure is given as a SMILES string. Some results are limits rather than exact numbers.

In the experiment the target is mGluR5 (Homo sapiens, UniProt P41594). Description: mGluR5 PAM EC50 (positive allosteric modulator potency). The class given is cell-based.
mGluR5, sequence (P41594 21-1212): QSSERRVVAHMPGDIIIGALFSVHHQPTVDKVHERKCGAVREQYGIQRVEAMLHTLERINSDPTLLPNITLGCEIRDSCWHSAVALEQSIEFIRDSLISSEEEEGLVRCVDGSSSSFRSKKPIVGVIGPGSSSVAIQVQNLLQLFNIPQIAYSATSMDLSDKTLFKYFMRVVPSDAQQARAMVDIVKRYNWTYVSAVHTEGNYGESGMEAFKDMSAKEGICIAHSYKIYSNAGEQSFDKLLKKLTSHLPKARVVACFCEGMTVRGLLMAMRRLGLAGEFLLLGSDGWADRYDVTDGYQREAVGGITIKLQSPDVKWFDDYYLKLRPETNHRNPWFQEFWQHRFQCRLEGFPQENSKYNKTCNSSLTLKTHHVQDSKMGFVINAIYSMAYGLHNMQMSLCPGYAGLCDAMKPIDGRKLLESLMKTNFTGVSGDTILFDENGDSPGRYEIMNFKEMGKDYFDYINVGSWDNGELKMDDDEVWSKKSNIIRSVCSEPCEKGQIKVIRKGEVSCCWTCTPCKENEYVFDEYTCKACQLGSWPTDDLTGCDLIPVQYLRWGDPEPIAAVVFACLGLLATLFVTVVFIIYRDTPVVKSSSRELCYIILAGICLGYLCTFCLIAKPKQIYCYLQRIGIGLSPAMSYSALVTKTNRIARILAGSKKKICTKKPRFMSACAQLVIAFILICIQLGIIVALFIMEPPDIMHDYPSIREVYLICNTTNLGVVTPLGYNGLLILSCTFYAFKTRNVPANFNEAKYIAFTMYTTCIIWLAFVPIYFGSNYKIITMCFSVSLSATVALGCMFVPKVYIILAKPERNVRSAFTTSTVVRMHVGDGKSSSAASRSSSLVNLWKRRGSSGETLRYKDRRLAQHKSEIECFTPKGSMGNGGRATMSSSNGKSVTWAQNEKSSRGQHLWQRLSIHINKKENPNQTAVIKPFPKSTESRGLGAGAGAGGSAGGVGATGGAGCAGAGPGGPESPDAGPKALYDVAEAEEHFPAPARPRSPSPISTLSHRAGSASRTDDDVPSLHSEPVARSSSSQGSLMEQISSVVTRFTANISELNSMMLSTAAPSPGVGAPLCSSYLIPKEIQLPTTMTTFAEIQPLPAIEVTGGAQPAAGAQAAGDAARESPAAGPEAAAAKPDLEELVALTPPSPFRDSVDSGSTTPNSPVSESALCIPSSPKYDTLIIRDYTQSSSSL
Broadly, the EC50 is the concentration giving half of the maximal effect. Read a low EC50 as higher potency in that assay. In turn, `O=c1c2ccc(C#Cc3ccccn3)cc2nc2n1CC1COCC1CC2` (single isomer, unassigned) [Example 3.2d] came in with an EC50 of 30 to 100 nM.

On to `O=c1c2ccc(C#Cc3ccccn3)cc2nc2n1CCC1COCC1C2` (single isomer, unassigned) [Example 3.2e], for which the EC50 fell in the range of 30 to 100 nM.

`CC1(C)Cc2nc3cc(C(=O)Nc4ccccn4)ccc3c(=O)n2C1` [Example 4.17, 2,2-dimethyl-9-oxo-N-(pyridin-2-yl)-1,2,3,9-tetrahydropyrrolo[2,1-b]quinazoline-6-carboxamide] displayed an EC50 of 300 to 1000 nM.

With `CC1(C)CCc2nc3cc(NC(=O)Nc4ccccn4)ccc3c(=O)n2C1` [Example 6.12, 1-(8,8-dimethyl-11-oxo-7,8,9,11-tetrahydro-6H-pyrido[2,1-b]quinazolin-3-yl)-3-(pyridin-2-yl)urea], the EC50 fell in the range of 300 to 1000 nM.

On to `CC1(C)CCc2nc3cc(C#Cc4cccc(C#N)n4)ccc3c(=O)n2C1` [Example 2.24b, 6-((8,8-dimethyl-11-oxo-7,8,9,11-tetrahydro-6H-pyrido[2,1-b]quinazolin-3-yl)ethynyl)picolinonitrile], for which the EC50 lay within 10 to 30 nM.

`COC1CCc2nc3cc(C#Cc4ccccn4)cnc3c(=O)n2CC1` (stereo not drawn) [Example 3.23, 8-methoxy-3-(pyridin-2-ylethynyl)-7,8,9,10-tetrahydropyrido[3′,2′:4,5]pyrimido [1,2-a]azepin-19(6H)-one] showed an EC50 of 100 to 300 nM.

Molecule `CC1(C)CCc2nc3cc(C#Cc4ccncc4F)ccc3c(=O)n2C1` [Example 2.91, 3-((3-fluoropyridin-4-yl)ethynyl)-8,8-dimethyl-8,9-dihydro-6H-pyrido[2,1-b]quinazolin-11(7H)-one] displayed an EC50 of under 10 nM.

In turn, `CC1(C)Cn2c(nc3cc(C#Cc4ccccn4)ccc3c2=O)C1F` (single isomer, unassigned) [Example 1.11b] came in with an EC50 of 10 to 30 nM.

Molecule `CC1(C)CCc2nc3cc(C#Cc4cc(C#N)ccn4)ccc3c(=O)n2C1` [Example 2.25b, 2-((8,8-dimethyl-11-oxo-7,8,9,11-tetrahydro-6H-pyrido[2,1-b]quinazolin-3-yl)ethynyl)isonicotinonitrile] showed an EC50 of under 10 nM.

`CC1CCCc2nc3cc(C#Cc4ccccn4)ccc3c(=O)n21` (single isomer, unassigned) [Example 2.3b]: the EC50 was under 10 nM.

The molecule `CC1(C)Cn2c(nc3cc(C#Cc4ccccn4)ccc3c2=O)C1F` (single isomer, unassigned) [Example 1.11a] gave an EC50 of under 10 nM.

Molecule `CC1CCc2nc3c(F)c(C#Cc4ccccn4)ccc3c(=O)n2CC1` (single isomer, unassigned) [Example 3.12b] registered an EC50 of 10 to 30 nM.

`O=c1c2ccc(C#Cc3ccccn3)cc2nc2n1CC(CF)C2` (single isomer, unassigned) [Example 1.9a] came in with an EC50 of 30 to 100 nM.

With `CC1(C)CCn2c(nc3c(F)c(C#Cc4ccccn4)ccc3c2=O)C1` [Example 2.30a, 4-fluoro-7,7-dimethyl-3-(pyridin-2-ylethynyl)-8,9-dihydro-6H-pyrido[2,1-b]quinazolin-11(7H)-one], the EC50 was 10 to 30 nM.

Take `O=c1c2ccc(C#Cc3ccccn3)cc2nc2n1CCC1COCC1C2` (single isomer, unassigned) [Example 3.2f]: the EC50 was under 10 nM.

Consider `CC12CCCN1CCc1nc3cc(C#Cc4ccccn4)ccc3c(=O)n1C2` (stereo not drawn) [Example 3.34, 14a-methyl-9-(pyridin-2-ylethynyl)-2,3,5,6,14,14a-hexahydropyrrolo[2′,1′:3,4][1,4] diazepino[7,1-b]quinazolin-12(1H)-one], for which the EC50 was in the range of 300 to 1000 nM.

For `O=c1c2ccc(C#Cc3ccccn3)cc2nc2n1C[C@H]1CCCN1C2` [Example 2.104, (R)-8-(pyridin-2-ylethynyl)-2,3,13,13a-tetrahydro-1H-pyrrolo[1′,7′:4,5]pyrazino[2,1-b]quinazolin-11(5H)-one], the EC50 lay in the range of 30 to 100 nM.

`CC1(C)C=Cc2nc3cc(C#Cc4ccccn4)ccc3c(=O)n2CC1` [Example 3.42, 8,8-dimethyl-3-(pyridin-2-ylethynyl)-9,10-dihydroazepino[2,1-b]quinazolin-12(8H)-one] returned an EC50 of 30 to 100 nM.

With `O=c1c2ccc(C#Cc3ccccn3)cc2nc2n1CC1CCCCN21` (stereo not drawn) [Example 1.23, 3-(pyridin-2-ylethynyl)-9,10,10a,11-tetrahydro-7H-pyrido[1′,2′:3,4]imidazo[2,1-b]quinazolin-13(8H)-one], the EC50 lay within 30 to 100 nM.

`CC1(C)CCc2nc3cc(C(=O)Cc4ccccn4)ccc3c(=O)n2C1` [Example 6.7, 8,8-dimethyl-3-(2-(pyridin-2-yl)acetyl)-8,9-dihydro-6H-pyrido[2,1-b]quinazolin-11(7H)-one]: the EC50 is 30 to 100 nM.

The molecule `CC1(C)CCc2nc3cc(-c4ncc(-c5ccccn5)o4)ccc3c(=O)n2C1` [Example 6.25, 8,8-dimethyl-3-(5-(pyridin-2-yl)oxazol-2-yl)-8,9-dihydro-6H-pyrido[2,1-b]quinazolin-11(7H)-one] had an EC50 of 100 to 300 nM.

As for `CCC1(F)CCc2nc3cc(C#Cc4ccccn4)ccc3c(=O)n2CC1` (stereo not drawn) [Example 3.17, 8-ethyl-8-fluoro-3-(pyridin-2-ylethynyl)-7,8,9,10-tetrahydroazepino[2,1-b]quinazolin-12(6H)-one], the EC50 fell in the range of 10 to 30 nM.

Turning to `CC1(C)CCc2nc3cc(C#Cc4ccc(F)nc4)ccc3c(=O)n2C1` [Example 2.88, 3-((6-fluoropyridin-3-yl)ethynyl)-8,8-dimethyl-8,9-dihydro-6H-pyrido[2,1-b]quinazolin-11(7H)-one], the EC50 was under 10 nM.

For `CC1(C)Cc2nc3c(F)c(C#Cc4ccccn4)ccc3c(=O)n2C1` [Example 1.16, 5-fluoro-2,2-dimethyl-6-(pyridin-2-ylethynyl)-2,3-dihydropyrrolo[2,1-b]quinazolin-9(1H)-one], the EC50 is under 10 nM.

Molecule `CC1(F)CCCc2nc3cc(C#Cc4ccccn4)ccc3c(=O)n2C1` (single isomer, unassigned) [Example 3.24a] yielded an EC50 of under 10 nM.

On to `CC1(C)CCc2nc3cc(C#Cc4ccccc4F)ccc3c(=O)n2C1` [Example 2.73, 3-((2-fluorophenyl)ethynyl)-8,8-dimethyl-8,9-dihydro-6H-pyrido[2,1-b]quinazolin-11(7H)-one], for which the EC50 was in the range of 10 to 30 nM.

`CC1(C)CCc2nc3cc(COc4ccccn4)ccc3c(=O)n2C1` [Example 6.4, 8,8-dimethyl-3-((pyridin-2-yloxy)methyl)-8,9-dihydro-6H-pyrido[2,1-b]quinazolin-11(7H)-one] displayed an EC50 of 100 to 300 nM.

In the case of `CC1(F)CCCc2nc3cc(C#Cc4ccccn4)cnc3c(=O)n2C1` (stereo not drawn) [Example 3.25, 9-fluoro-9-methyl-3-(pyridin-2-ylethynyl)-7,8,9,10-tetrahydropyrido[3′,2′:4,5]pyrimido [1,2-a]azepin-12(6H)-one], the EC50 is 100 to 300 nM.

Consider `CC1(C)CCc2nc3cc(OCc4ccccn4)ccc3c(=O)n2C1` [Example 4.5, 8,8-dimethyl-3-(pyridin-2-ylmethoxy)-8,9-dihydro-6H-pyrido[2,1-b]quinazolin-11(7H)-one], for which the EC50 lay in the range of 30 to 100 nM.

`Cc1csc(/C=C/c2ccc3c(=O)n4c(nc3c2)CCC(C)(C)C4)n1` [Example 4.3, (E)-8,8-dimethyl-3-(2-(4-methylthiazol-2-yl)vinyl)-8,9-dihydro-6H-pyrido[2,1-b]quinazolin-11(7H)-one] returned an EC50 of 10 to 30 nM.

For the molecule `CC1(C)CCc2nc3cc(/C=C/c4cc(C#N)ccn4)ccc3c(=O)n2C1` [Example 4.1b, (E)-2-(2-(8,8-dimethyl-11-oxo-7,8,9,11-tetrahydro-6H-pyrido[2,1-b]quinazolin-3-yl)vinyl)isonicotinonitrile], the EC50 was in the range of 300 to 1000 nM.

As to `CC1(C)CCc2nc3cc(C(=O)Nc4ccccn4)ccc3c(=O)n2C1` [Example 4.8, 8,8-dimethyl-11-oxo-N-(pyridin-2-yl)-7,8,9,11-tetrahydro-6H-pyrido[2,1-b]quinazoline-3-carboxamide], the EC50 lay in the range of 100 to 300 nM.

The molecule `CC(C)(O)C1Cc2nc3cc(C#Cc4ccccn4)ccc3c(=O)n2C1` (single isomer, unassigned) [Example 1.2b] gave an EC50 of 300 to 1000 nM.

For `CC1(F)CCc2nc3cc(C#Cc4ccccn4)ccc3c(=O)n2C1` (single isomer, unassigned) [Example 2.13a], the EC50 fell in the range of 10 to 30 nM.

`O=c1c2ncc(C#Cc3ccccn3)cc2nc2n1CCC(F)(F)CC2` [Example 3.16, 8,8-difluoro-3-(pyridin-2-ylethynyl)-7,8,9,10-tetrahydropyrido[3′,2′:4,5]pyrimido [1,2-a]azepin-12(6H)-one] registered an EC50 of 100 to 300 nM.

`C=CC1(F)CCc2nc3cc(C#Cc4ccccn4)ccc3c(=O)n2C1` (stereo not drawn) [Example 2.38, 8-fluoro-3-(pyridin-2-ylethynyl)-8-vinyl-8,9-dihydro-6H-pyrido[2,1-b]quinazolin-11(7H)-one] returned an EC50 of 10 to 30 nM.

The molecule `O=C(Nc1ccccn1)c1ccc2c(=O)n3c(nc2c1)CCC(F)(F)CC3` [Example 5.4, 8,8-difluoro-12-oxo-N-(pyridin-2-yl)-6,7,8,9,10,12-hexahydroazepino[2,1-b]quinazoline-3-carboxamide] showed an EC50 of 300 to 1000 nM.

As to `O=c1c2ncc(C#Cc3ccccn3)cc2nc2n1CCCC(C(F)(F)F)C2` (stereo not drawn) [Example 3.8, 3-(pyridin-2-ylethynyl)-7-(trifluoromethyl)-7,8,9,10-tetrahydropyrido[3′,2′:4,5]pyrimido [1,2-a]azepin-12(6H)-one], the EC50 was 30 to 100 nM.

In turn, `O=c1c2ccc(C#Cc3ccccn3)cc2nc2n1CC1CC(F)(F)CN1CC2` (stereo not drawn) [Example 3.33a, 2,2-difluoro-9-(pyridin-2-ylethynyl)-2,3,5,6,14,14a-hexahydropyrrolo[2′,1′:3,4][1,4] diazepino[7,1-b]quinazolin-12(1H)-one] came in with an EC50 of 30 to 100 nM.

Consider `CCC1CCc2nc3cc(C#Cc4ccccn4)ccc3c(=O)n2CC1` (single isomer, unassigned) [Example 3.13b], for which the EC50 is 10 to 30 nM.

Take `O=c1c2ncc(C#Cc3ccccn3)cc2nc2n1CCC(C(F)(F)F)CC2` (single isomer, unassigned) [Example 3.9a]: the EC50 is 30 to 100 nM.

In turn, `CC1(C)CCc2nc3cc(C#Cc4cncc(F)c4)ccc3c(=O)n2C1` [Example 2.89, 3-((5-fluoropyridin-3-yl)ethynyl)-8,8-dimethyl-8,9-dihydro-6H-pyrido[2,1-b]quinazolin-11(7H)-one] displayed an EC50 of under 10 nM.

These data come from US9708331B2, “Metabotrophic glutamate receptor 5 modulators and methods of use thereof” (SUNOVION PHARMACEUTICALS INC., priority 2011, dated 2017).
